Values joined by “and” are separate entries in the source; they are usually repeats but may differ in a detail not shown here. Identical values can stand only once. Counter-ions that a name gives are not always drawn. Like-named read-outs stand apart in the source and are kept apart here.
What was measured:
[1] = molecular target: DNMT1 (Homo sapiens, UniProt P26358); assay: DNMT1 biochemical activity, breaklight assay and/or SPA assay
[2] = system: erythroid progenitor cells (EPCs); assay: Fetal hemoglobin (HbF) ELISA in day 7 erythroid progenitor cells; type: cell-based, human; settings: Homo sapiens, Erythroid progenitor cell, HbF ELISA, day 7 EPCs, 5 days; read-out: EPC ELISA (pEC50 category) (converted);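 also: for fetal hemoglobin induction normalized to vehicle-treated cells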
Summary of the method: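 Read-out was OD450 from an HRP/TMB sandwich ELISA on lysates, normalized to DMSO-only control wells. Thawed day 7 EPCs from human marrow CD34+ cells had been treated for 5 days at 37° C with Compound A, 22 concentrations […].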

[3] = binned activity in either the breaklight or the SPA assay
[4] = binned activity in either the breaklight or the SPA assay, read-out: DNMT1 BioChemical (pIC50 category) (converted)
[5] = breaklight assay and/or SPA assay, repeated experimental runs, read-out: average pIC50 against DNMT1 (converted)

Chain of DNMT1 (P26358 whole entry, looked up): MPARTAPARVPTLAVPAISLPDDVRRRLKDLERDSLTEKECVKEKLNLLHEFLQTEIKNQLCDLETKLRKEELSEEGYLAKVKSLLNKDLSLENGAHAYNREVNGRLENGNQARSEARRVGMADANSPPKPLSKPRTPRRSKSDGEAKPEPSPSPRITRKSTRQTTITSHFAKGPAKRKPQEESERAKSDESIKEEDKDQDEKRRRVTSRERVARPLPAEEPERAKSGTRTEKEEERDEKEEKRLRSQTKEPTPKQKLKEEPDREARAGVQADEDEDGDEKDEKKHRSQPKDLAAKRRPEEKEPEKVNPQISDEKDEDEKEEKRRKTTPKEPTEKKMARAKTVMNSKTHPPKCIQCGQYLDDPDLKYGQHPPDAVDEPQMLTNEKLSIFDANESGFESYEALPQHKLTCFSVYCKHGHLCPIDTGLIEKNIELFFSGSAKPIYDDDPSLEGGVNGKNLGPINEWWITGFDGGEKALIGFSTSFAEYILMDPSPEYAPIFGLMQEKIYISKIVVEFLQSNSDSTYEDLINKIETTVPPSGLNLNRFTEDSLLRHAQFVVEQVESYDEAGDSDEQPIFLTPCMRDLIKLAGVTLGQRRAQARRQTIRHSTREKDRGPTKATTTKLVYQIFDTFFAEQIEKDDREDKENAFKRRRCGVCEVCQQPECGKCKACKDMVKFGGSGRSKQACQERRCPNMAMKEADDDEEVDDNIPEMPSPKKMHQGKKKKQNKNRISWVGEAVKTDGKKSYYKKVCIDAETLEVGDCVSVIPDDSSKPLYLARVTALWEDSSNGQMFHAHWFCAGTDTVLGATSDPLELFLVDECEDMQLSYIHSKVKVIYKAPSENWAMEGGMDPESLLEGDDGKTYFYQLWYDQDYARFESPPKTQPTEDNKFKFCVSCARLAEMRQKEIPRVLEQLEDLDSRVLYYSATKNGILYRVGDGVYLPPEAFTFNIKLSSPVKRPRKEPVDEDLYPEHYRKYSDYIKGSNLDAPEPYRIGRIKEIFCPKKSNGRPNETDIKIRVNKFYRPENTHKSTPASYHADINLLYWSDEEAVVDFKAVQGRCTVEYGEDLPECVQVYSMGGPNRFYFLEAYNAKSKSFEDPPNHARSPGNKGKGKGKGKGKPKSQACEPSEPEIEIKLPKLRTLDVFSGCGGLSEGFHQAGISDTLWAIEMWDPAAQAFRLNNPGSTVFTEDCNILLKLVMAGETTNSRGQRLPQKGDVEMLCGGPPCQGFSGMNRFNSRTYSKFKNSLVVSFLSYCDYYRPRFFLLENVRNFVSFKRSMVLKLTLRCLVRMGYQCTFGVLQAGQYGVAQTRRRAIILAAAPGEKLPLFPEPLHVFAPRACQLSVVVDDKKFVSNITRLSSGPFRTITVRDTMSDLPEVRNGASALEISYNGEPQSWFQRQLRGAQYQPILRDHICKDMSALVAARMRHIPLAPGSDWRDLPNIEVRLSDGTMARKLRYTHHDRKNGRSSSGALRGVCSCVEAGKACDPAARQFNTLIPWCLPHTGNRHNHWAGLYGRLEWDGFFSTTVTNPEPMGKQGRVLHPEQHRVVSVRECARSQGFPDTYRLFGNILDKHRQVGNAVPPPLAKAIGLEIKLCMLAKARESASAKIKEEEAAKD

Row | Compound | DNMT1 BioChemical (pIC50 category) [1, 3] | EC50 [2] [nM] | IC50 [1, 4] [nM] | IC50 [1, 5]
1 | CCc1c(C#N)c(SC(C(N)=O)c2ccccc2)nc(N(C)Cc2cc[nH]n2)c1C#N (stereo not shown) [Example 356, 2-((6-(((1H-Pyrazol-3-yl)methyl)(methyl)amino)-3,5-dicyano-4-ethylpyridin-2-yl)thio)-2-phenylacetamide] | D (Category D: ≥6.5) | 316 to 1000 | – | –
2 | CCc1c(C#N)c(SCc2ccc(B(O)O)cc2)nc(N2CCCN(C)CC2)c1C#N [Example 357, 4-((3,5-Dicyano-4-ethyl-6-(4-methyl-1,4-diazepan-1-yl)pyridin-2-ylthio)methyl)phenylboronic acid] | – | > 31600 | 316 to 1000 | –
3 | CCc1c(C#N)c(SCc2ccc(CNC(=O)CNC)cc2)nc(N2CCCN(C)CC2)c1C#N [Example 358, N-(4-(((3,5-Dicyano-4-ethyl-6-(4-methyl-1,4-diazepan-1-yl)pyridin-2-yl)thio)methyl)benzyl)-2-(methylamino)acetamide] | D (Category D: ≥6.5) | > 31600 | – | –
4 | CCc1c(C#N)c(SC(C(N)=O)c2ccccc2)nc(N2CCc3[nH]nnc3C2)c1C#N (stereo not shown) [Example 359, 2-((3,5-Dicyano-6-(6,7-dihydro-1H-[1,2,3]triazolo[4,5-c]pyridin-5(4H)-yl)-4-ethylpyridin-2-yl)thio)-2-phenylacetamide] | – | 1000 to 31600 | 316 to 1000 | –
5 | CCc1c(C#N)c(SCc2ccc(N)c(F)c2)nc(N2CCCN(C)CC2)c1C#N [Example 360, 2-((4-Amino-3-fluorobenzyl)thio)-4-ethyl-6-(4-methyl-1,4-diazepan-1-yl)pyridine-3,5-dicarbonitrile] | – | 1000 to 31600 | 316 to 1000 | –
6 | CCc1c(C#N)c(SCc2ccc(NS(C)(=O)=O)c(F)c2)nc(N2CCCN(C)CC2)c1C#N [Example 361, N-(4-(((3,5-Dicyano-4-ethyl-6-(4-methyl-1,4-diazepan-1-yl)pyridin-2-yl)thio)methyl)-2-fluorophenyl)methanesulfonamide] | – | 1000 to 31600 | 316 to 1000 | –
7 | CCc1c(C#N)c(SCc2ccc(NC(C)=O)c(F)c2)nc(N2CCCN(C)CC2)c1C#N [Example 362] | – | > 31600 | 316 to 1000 | –
8 | CCc1c(C#N)c(SCc2cnn(CCO)c2)nc(N2CCC(N)CC2)c1C#N [Example 363] | – | 1000 to 31600 | 316 to 1000 | –
9 | CCc1c(C#N)c(SC(C(N)=O)c2ccccc2)nc(N(C)Cc2ncc[nH]2)c1C#N (stereo not shown) [Example 364, 2-((6-(((1H-Imidazol-2-yl)methyl)(methyl)amino)-3,5-dicyano-4-ethylpyridin-2-yl)thio)-2-phenylacetamide] | D (Category D: ≥6.5) | < 316 | – | –
10 | CCc1c(C#N)c(SC(C(N)=O)c2ccccc2)nc(N(C)Cc2cnc[nH]2)c1C#N (stereo not shown) [Example 365] | – | 1000 to 31600 | 316 to 1000 | –
11 | CCc1c(C#N)c(SC(C(N)=O)c2ccccc2)nc(N2CCC(NC(=O)[C@@H](C)N)CC2)c1C#N (stereo partly drawn) [Example 366, (2R)-2-Amino-N-(1-(6-((2-amino-2-oxo-1-phenylethyl)thio)-3,5-dicyano-4-ethylpyridin-2-yl)piperidin-4-yl)propanamide, Hydrochloride] | D (Category D: ≥6.5) | < 316 | – | –
12 | CCc1c(C#N)c(SCc2ccc(CNC(=O)CO)cc2)nc(N2CCC(O)C2)c1C#N (stereo not shown) [Example 367] | – | 1000 to 31600 | 316 to 1000 | –
13 | CCc1c(C#N)c(SC(C(N)=O)c2ccc(C(N)=O)cc2)nc(N2CCCN(C)CC2)c1C#N (stereo not shown) [Example 368, 4-(2-Amino-1-((3,5-dicyano-4-ethyl-6-(4-methyl-1,4-diazepan-1-yl)pyridin-2-yl)thio)-2-oxoethyl)benzamide] | D (Category D: ≥6.5) | > 31600 | – | –
14 | N#Cc1c(SC(C(N)=O)c2ccccc2)nc(N2CCC(O)C2)c(C#N)c1C1CC1 (stereo not shown) [Example 369, 2-((3,5-Dicyano-4-cyclopropyl-6-(3-hydroxypyrrolidin-1-yl)pyridin-2-yl)thio)-2-phenylacetamide] | D (Category D: ≥6.5) | 1000 to 31600 | – | –
15 | CCc1c(C#N)c(SC(C(N)=O)c2ccccc2)nc(N2CCC(O)C2)c1C#N (stereo not shown) [Example 370, 2-((3,5-Dicyano-4-ethyl-6-(3-hydroxypyrrolidin-1-yl)pyridin-2-yl)thio)-2-phenylacetamide] | – | 1000 to 31600 | 316 to 1000 | –
16 | CCc1c(C#N)c(SCc2ccc(CNC(=O)CO)cc2)nc(N(C)CC(N)=O)c1C#N [Example 371] | – | 1000 to 31600 | 316 to 1000 | –
17 | C[C@@H](N)C(=O)NC1CCN(c2nc(SC(C(N)=O)c3ccccc3)c(C#N)c(C3CC3)c2C#N)CC1 (stereo partly drawn) [Example 372, (2R)-2-Amino-N-(1-(6-((2-amino-2-oxo-1-phenylethyl)thio)-3,5-dicyano-4-cyclopropylpyridin-2-yl)piperidin-4-yl)propanamide] | D (Category D: ≥6.5) | 316 to 1000 | – | –
18 | CN(CCN)c1nc(SC(C(N)=O)c2ccccc2)c(C#N)c(C2CC2)c1C#N (stereo not shown) [Example 373, 2-((6-((2-Aminoethyl)(methyl)amino)-3,5-dicyano-4-cyclopropylpyridin-2-yl)thio)-2-phenylacetamide, Hydrochloride] | D (Category D: ≥6.5) | 316 to 1000 | – | –
19 | CC(C)(N)C(=O)NC1CCN(c2nc(SC(C(N)=O)c3ccccc3)c(C#N)c(C3CC3)c2C#N)CC1 (stereo not shown) [Example 374, 2-Amino-N-(1-(6-((2-amino-2-oxo-1-phenylethyl)thio)-3,5-dicyano-4-cyclopropylpyridin-2-yl)piperidin-4-yl)-2-methylpropanamide] | D (Category D: ≥6.5) | 316 to 1000 | – | –
20 | CCc1c(C#N)c(SC(C(N)=O)c2ccc(C(N)=O)cc2)nc(N(C)C)c1C#N (stereo not shown) [Example 375, 4-(2-Amino-1-((3,5-dicyano-6-(dimethylamino)-4-ethylpyridin-2-yl)thio)-2-oxoethyl)benzamide] | D (Category D: ≥6.5) | 1000 to 31600 | – | –
21 | CCc1c(C)c(N2CCC(N)CC2)nc(SC(C(N)=O)c2ccccc2)c1C#N (stereo not shown) [Example 376, 2-(6-(4-Aminopiperidin-1-yl)-3-cyano-4-ethyl-5-methylpyridin-2-ylthio)-2-phenylacetamide] | – | 316 to 1000 | 316 to 1000 | –
22 | CCc1c(C#N)c(SCc2ccc(OCCN(C)C)cc2)nc(N2CCCN(C)CC2)c1C#N [Example 377, 2-(4-(2-(Dimethylamino)ethoxy)benzylthio)-4-ethyl-6-(4-methyl-1,4-diazepan-1-yl)pyridine-3,5-dicarbonitrile] | – | > 31600 | 1000 to 31600 | ≥ 1000 nM
23 | CCc1c(C#N)c(SC(C(N)=O)c2ccc(S(=O)(=O)NC)cc2)nc(N2CCCN(C)CC2)c1C#N (stereo not shown) [Example 378] | – | 1000 to 31600 | 316 to 1000 | –
24 | CCc1c(C#N)c(SCc2ccc(S(C)(=O)=O)cc2)nc(N2CCCN(C)CC2)c1C#N [Example 379, 4-Ethyl-2-(4-methyl-1,4-diazepan-1-yl)-6-((4-(methylsulfonyl)benzyl)thio)pyridine-3,5-dicarbonitrile] | – | 316 to 1000 | 316 to 1000 | 316 to 1000 nM and 794 nM
25 | CCc1c(C#N)c(SCc2cnn(CC(O)CO)c2)nc(N2CCC(N)CC2)c1C#N (stereo not shown) [Example 380, 2-(4-Aminopiperidin-1-yl)-6-(((1-(2,3-dihydroxypropyl)-1H-pyrazol-4-yl)methyl)thio)-4-ethylpyridine-3,5-dicarbonitrile, Hydrochloride] | – | 1000 to 31600 | 316 to 1000 | –

— patent US10975056B2 (GlaxoSmithKline Intellectual Property Development Limited, priority 2016, dated 2021)
